Like-named read-outs stand apart in the source and are kept apart here.
What was measured:
Format in all cases: cell-based
[1] = tested on: SF-539; assay: NCI single dose screening (10 µM); settings: Homo sapiens
[2] = tested on: MDA-MB-231/ATCC; assay: NCI single dose screening (10 µM); settings: Homo sapiens
[3] = tested on: HCT-15; assay: NCI single dose screening (10 µM); settings: Homo sapiens
[4] = tested on: NCI-H460; assay: NCI single dose screening (10 µM); settings: Homo sapiens
[5] = tested on: MDA-MB-435; assay: NCI single dose screening (10 µM); settings: Homo sapiens
[6] = tested on: NCI-H522; assay: NCI single dose screening (10 µM); settings: Homo sapiens
[7] = tested on: SK-MEL-2; assay: NCI single dose screening (10 µM); settings: Homo sapiens
[8] = tested on: K-562; assay: NCI single dose screening (10 µM); settings: Homo sapiens
[9] = tested on: PC-3; assay: NCI single dose screening (10 µM); settings: Homo sapiens
[10] = tested on: MDA-MB-468; assay: NCI single dose screening (10 µM); settings: Homo sapiens
[11] = tested on: A549/ATCC; assay: NCI single dose screening (10 µM); settings: Homo sapiens
[12] = tested on: OVCAR-4; assay: NCI single dose screening (10 µM); settings: Homo sapiens
[13] = tested on: NCI/ADR-RES; assay: NCI single dose screening (10 µM); settings: Homo sapiens, read-out: GI% (cell growth inhibition percentage)
[14] = tested on: OVCAR-3; assay: NCI single dose screening (10 µM); settings: Homo sapiens
[15] = tested on: LOX IMVI; assay: NCI single dose screening (10 µM); settings: Homo sapiens, read-out: GI% (cell growth inhibition percentage)
[16] = tested on: HOP-92; assay: NCI single dose screening (10 µM); settings: Homo sapiens
[17] = tested on: COLO 205; assay: NCI single dose screening (10 µM); settings: Homo sapiens
[18] = tested on: SF-268; assay: NCI single dose screening (10 µM); settings: Homo sapiens
[19] = tested on: KM12; assay: NCI single dose screening (10 µM); settings: Homo sapiens
[20] = tested on: HOP-62; assay: NCI single dose screening (10 µM); settings: Homo sapiens
[21] = tested on: HCT-116; assay: NCI single dose screening (10 µM); settings: Homo sapiens
[22] = tested on: NCI-55 cancer cell line panel; assay: NCI single dose screening (10 µM), whole panel; settings: Homo sapiens, read-out: Mean inhibition, % (mean GI%)
[23] = SF-539, CNS cancer, single dose 10^−5 M, read-out: GI% (cell growth inhibition percentage)
[24] = MDA-MB-231/ATCC, Breast cancer, single dose 10^−5 M, read-out: GI% (cell growth inhibition percentage)
[25] = HCT-15, Colon cancer, single dose 10^−5 M, read-out: GI% (cell growth inhibition percentage)
[26] = NCI-H460, Non-small cell lung cancer, single dose 10^−5 M, read-out: GI% (cell growth inhibition percentage)
[27] = MDA-MB-435, Melanoma, single dose 10^−5 M, read-out: GI% (cell growth inhibition percentage)
[28] = NCI-H522, Non-small cell lung cancer, single dose 10^−5 M, read-out: GI% (cell growth inhibition percentage)
[29] = SK-MEL-2, Melanoma, single dose 10^−5 M, read-out: GI% (cell growth inhibition percentage)
[30] = K562, K-562, Leukaemia, single dose 10^−5 M, read-out: GI% (cell growth inhibition percentage)
[31] = PC-3, Prostate cancer, single dose 10^−5 M, read-out: GI% (cell growth inhibition percentage)
[32] = MDA-MB-468, Breast cancer, single dose 10^−5 M, read-out: GI% (cell growth inhibition percentage)
[33] = A549/ATCC, Non-small cell lung cancer, single dose 10^−5 M, read-out: GI% (cell growth inhibition percentage)
[34] = OVCAR-4, Ovarian cancer, single dose 10^−5 M, read-out: GI% (cell growth inhibition percentage)
[35] = Ovarian cancer, single dose 10^−5 M
[36] = OVCAR-3, Ovarian cancer, single dose 10^−5 M, read-out: GI% (cell growth inhibition percentage)
[37] = HOP-92, Non-small cell lung cancer, single dose 10^−5 M, read-out: GI% (cell growth inhibition percentage)
[38] = COLO 205, Colon cancer, single dose 10^−5 M, read-out: GI% (cell growth inhibition percentage)
[39] = SF-268, CNS cancer, single dose 10^−5 M, read-out: GI% (cell growth inhibition percentage)
[40] = KM12, Colon cancer, single dose 10^−5 M, read-out: GI% (cell growth inhibition percentage)
[41] = HOP-62, Non-small cell lung cancer, single dose 10^−5 M, read-out: GI% (cell growth inhibition percentage)
[42] = HCT-116, Colon cancer, single dose 10^−5 M, read-out: GI% (cell growth inhibition percentage)
[43] = mean over NCI-55 cell lines, single dose 10^−5 M

For COc1ccc2c(c1)/C(=N/NC(=O)c1oc3ccccc3c1C)C(=O)N2 [Compound 5d], the inhibition at 10 µM [1, 23] was 62.6%, the inhibition at 10 µM [2, 24] was 76.2% and the inhibition at 10 µM [3, 25] was 50.9%. For the same compound, the inhibition at 10 µM [4, 26] was 123%, the inhibition at 10 µM [5, 27] was 61% and the inhibition at 10 µM [6, 28] was 45.7%. The inhibition at 10 µM [7, 29] was 29.1%, the inhibition at 10 µM [8, 30] was 57.5% and the inhibition at 10 µM [9, 31] was 78.2%. It also gave an inhibition at 10 µM [10, 32] of 80.1%, an inhibition at 10 µM [11, 33] of 124% and an inhibition at 10 µM [12, 34] of 153%. For the same compound, the inhibition at 10 µM [13, 35] was 69.5%, the inhibition at 10 µM [14, 36] was 166% and the inhibition at 10 µM ([15]; Melanoma, single dose 10^−5 M) was 83.7%. For the same compound, the inhibition at 10 µM [16, 37] was 144%, the inhibition at 10 µM [17, 38] was 77.2% and the inhibition at 10 µM [18, 39] was 42.3%. It also gave an inhibition at 10 µM [19, 40] of 56.2%, an inhibition at 10 µM [20, 41] of 124% and an inhibition at 10 µM [21, 42] of 129%. For the same compound, the inhibition at 10 µM [22, 43] was 87.3%.

With Cc1c(C(=O)N/N=C2\C(=O)Nc3ccc(F)cc32)oc2ccccc12 [Compound 5b] the inhibition at 10 µM [1, 23] was < 10%, the inhibition at 10 µM [2, 24] was 14.6% and the inhibition at 10 µM [3, 25] was < 10%. For the same compound, the inhibition at 10 µM [4, 26] was < 10%, the inhibition at 10 µM [5, 27] was < 10% and the inhibition at 10 µM [6, 28] was 10.4%. The inhibition at 10 µM [7, 29] was < 10%, the inhibition at 10 µM [8, 30] was < 10% and the inhibition at 10 µM [9, 31] was < 10%. For the same compound, the inhibition at 10 µM [10, 32] was < 10%, the inhibition at 10 µM [11, 33] was < 10% and the inhibition at 10 µM [12, 34] was < 10%. For the same compound, the inhibition at 10 µM [13, 35] was < 10%, the inhibition at 10 µM [14, 36] was < 10% and the inhibition at 10 µM ([15]; Melanoma, single dose 10^−5 M) was < 10%. The inhibition at 10 µM [16, 37] was < 10%, the inhibition at 10 µM [17, 38] was < 10% and the inhibition at 10 µM [18, 39] was < 10%. The inhibition at 10 µM [19, 40] was < 10%, the inhibition at 10 µM [20, 41] was < 10% and the inhibition at 10 µM [21, 42] was < 10%. It also gave an inhibition at 10 µM [22, 43] of 0.75%.

In the case of CCCN1C(=O)/C(=N\NC(=O)c2oc3ccccc3c2C)c2cc(Br)ccc21 [Compound 7g], the inhibition at 10 µM ([1]; SF-539, read-out: GI% (cell growth inhibition percentage)) is reported as < 10%, the inhibition at 10 µM ([2]; MDA-MB-231, read-out: GI% (cell growth inhibition percentage)) is reported as < 10% and the inhibition at 10 µM ([3]; HCT-15, read-out: GI% (cell growth inhibition percentage)) is reported as < 10%. For the same compound, the inhibition at 10 µM ([4]; NCI-H460, read-out: GI% (cell growth inhibition percentage)) was < 10%, the inhibition at 10 µM ([5]; MDA-MB-435, read-out: GI% (cell growth inhibition percentage)) was < 10% and the inhibition at 10 µM ([6]; NCI-H522, read-out: GI% (cell growth inhibition percentage)) was < 10%. For the same compound, the inhibition at 10 µM ([7]; SK-MEL-2, read-out: GI% (cell growth inhibition percentage)) was < 10%, the inhibition at 10 µM ([8]; K562, read-out: GI% (cell growth inhibition percentage)) was < 10% and the inhibition at 10 µM ([9]; PC-3, read-out: GI% (cell growth inhibition percentage)) was < 10%. For the same compound, the inhibition at 10 µM ([10]; MDA-MB-468, read-out: GI% (cell growth inhibition percentage)) was < 10%, the inhibition at 10 µM ([11]; A549, read-out: GI% (cell growth inhibition percentage)) was < 10% and the inhibition at 10 µM ([12]; OVCAR-4, read-out: GI% (cell growth inhibition percentage)) was < 10%. The inhibition at 10 µM [13] was < 10%, the inhibition at 10 µM ([14]; OVCAR-3, read-out: GI% (cell growth inhibition percentage)) was < 10% and the inhibition at 10 µM [15] was < 10%. For the same compound, the inhibition at 10 µM ([16]; HOP-92, read-out: GI% (cell growth inhibition percentage)) was < 10%, the inhibition at 10 µM ([17]; COLO 205, read-out: GI% (cell growth inhibition percentage)) was < 10% and the inhibition at 10 µM ([18]; SF-268, read-out: GI% (cell growth inhibition percentage)) was < 10%. The inhibition at 10 µM ([19]; KM12, read-out: GI% (cell growth inhibition percentage)) was < 10%, the inhibition at 10 µM ([20]; HOP-62, read-out: GI% (cell growth inhibition percentage)) was < 10% and the inhibition at 10 µM ([21]; HCT-116, read-out: GI% (cell growth inhibition percentage)) was < 10%. For the same compound, the inhibition at 10 µM [22] was -0.8%.
